Earlier results, collected in US8193201B2, “Synergistic anti-inflammatory pharmaceutical compositions and related methods using curcuminoids or methylxanthines” (priority 2004, dated 2012).

Tested on: PGE2
Conditions: value reported in the literature (Fiebich et al.)

Which “median PGE2 inhibitory concentration” value does the source give for `Cn1c(=O)c2c(ncn2C)n(C)c1=O` [Caffeine, caffeine] here?
The value was 8.2 µg/mL.
